{"source": "patent US20090076050A1", "about": "“SYNERGISTIC TUMOR-KILLING EFFECT OF RADIATION AND BERBERINE COMBINED TREATMENT IN LUNG CANCER” (CHUNG SHAN MEDICAL U., priority 2007, published 2009)", "test_system": "A549 cells", "assay": "inhibition assay with caspase and autophagy inhibitors on cells co-treated with berberine and IR", "type": "cell-based, human", "protocol": "Berberine has been reported to induce cell death in several cancer cells via mitochondrial disruption (Lin J P, et al. World J Gastroenterol 2006; 12:21-28.). Therefore, mitochondrial membrane potential was next measured with JC-1. Mitochondria membrane potential (Δ Ψm), the lipophilic cationic probe fluorochrome JC-1 (Invitrogen) was used. […] After a treatment of radiation (6 Gy) for 24 h in the absence or presence of 1.0-10 μM berberine, cells were rinsed with DMEM, and JC-1 (5 μmol/L) was loaded. Determination of Δ Ψm was also carried out with a FACScan Flow Cytometer. […] It has been reported that depolarized mitochondria would move into autophagic vacuoles in response to appropriate stimulation; thus, mitochondria dysfunction may be a point of overlap between apoptotic and autophagocytic processes (Bras M, et al. Biochemistry (Mosc) 2005; 70:231-39). […] On the other hand, beclin-1 siRNA and 3-MA (autophagy inhibitor) blocked the cell death induced by 5.0 μM berberine combined with 6 Gy IR (p<0.001). As a consequence, berberine sensitized A549 cells to IR damage via inducing autophagic cell death.", "note": "Residues, ends and D or L forms follow the SMILES beside them. *: point of attachment. Cbz = O=C(OCc1ccccc1)*; CH2F = FC*"}
{"smiles": "Cn1cnc(N)c2ncnc1-2", "note": "[3-MA, 3-methyladenine]", "values": [{"measurement": "effect of inhibitor on cell death induced by berberine combined with IR", "setting": "A549, 5.0 μM berberine combined with 6 Gy IR, p<0.001", "value": "blocked"}]}
{"smiles": "COC(=O)C[C@H](NC(=O)[C@H](C)NC(=O)[C@@H](NC(=O)OCc1ccccc1)C(C)C)C(=O)CF", "note": "[z-VAD-fmk] (Cbz-Val-Ala-Asp(OMe)-CH2F)", "values": [{"measurement": "effect of inhibitor on cell viability of cells co-treated with berberine and IR", "setting": "A549, berberine and IR co-treatment, p=0.15", "value": "did not significantly affect"}]}
